Where no end group is shown, it is not given here.

The series can be described thus: Turbidity assay for solubility of the peptides. The class given is physicochemical. Particulars: solubility of the antigenic peptides in water or Dimethyl Sulfoxide (DMSO). As for the experimental part: A number of antigenic peptides of the invention were synthesized by chemical synthesis as described in Section 5.1.1.
A turbidity assay was used to assess the solubility of the peptides. Turbidity assays used either a Varian Cary double-beam spectrophotometer, or a Molecular Devices Spectromax absorbance plate reader (for high throughput experiments). The spectrophotometer assay read every 2 nm between 340 nm and 360 nm, and averaged the values. Samples were analyzed in duplicate using a quartz micro-cuvette that holds about 200 uL. The plate reader assay used a 96-well plate format that read every 4 nm between 340 nm and 360 nm and averaged those values. Samples in this assay were run in triplicate.

`CC[C@H](C)[C@H](NC(=O)[C@H](CO)NC(=O)[C@H](CC(=O)O)NC(=O)[C@@H](NC(=O)[C@@H](NC(=O)[C@@H](NC(=O)CNC(=O)[C@H](CCC(N)=O)NC(=O)[C@H](CCC(N)=O)NC(=O)[C@H](Cc1ccc(O)cc1)NC(=O)[C@H](C)NC(=O)[C@H](CCCCN)NC(=O)[C@@H](N)CO)C(C)C)[C@@H](C)O)C(C)C)C(=O)NCC(=O)N[C@@H](CCSC)C(=O)N[C@@H](CC(C)C)C(=O)N1CCC[C@H]1C(=O)N[C@@H](CCCNC(=N)N)C(=O)N[C@@H](Cc1ccccc1)C(=O)N[C@H](C(=O)N1CCC[C@H]1C(=O)N[C@@H](CCC(=O)O)C(=O)N[C@@H](CC(N)=O)C(=O)N[C@@H](CCC(N)=O)C(=O)N[C@@H](CCCNC(=N)N)C(=O)N[C@H](C(=O)N[C@H](C(=O)N[C@@H](C)C(=O)N[C@@H](CC(C)C)C(=O)N[C@@H](Cc1ccc(O)cc1)C(=O)N[C@@H](CO)C(=O)N[C@@H](CC(C)C)C(=O)N[C@@H](CCCCN)C(=O)N[C@H](C(=O)N[C@@H](C)C(=O)O)[C@@H](C)CC)C(C)C)[C@@H](C)O)[C@@H](C)CC` [US06-3]: the Solubility entry is reported as “water”.

As for `CC(C)C[C@H](NC(=O)[C@@H]1CCCN1C(=O)[C@@H](NC(=O)[C@H](CO)NC(=O)[C@H](C)NC(=O)[C@H](CO)NC(=O)[C@H](CO)NC(=O)[C@H](CCCNC(=N)N)NC(=O)[C@@H](NC(=O)[C@H](CO)NC(=O)[C@@H](N)CC(=O)O)C(C)C)C(C)C)C(=O)N[C@@H](Cc1ccc(O)cc1)C(=O)N1CCC[C@H]1C(=O)N[C@@H](C)C(=O)N[C@@H](C)C(=O)N[C@@H](CO)C(=O)N1CCC[C@H]1C(=O)N[C@H](C(=O)N1CCC[C@H]1C(=O)N[C@@H](C)C(=O)N[C@@H](CCC(=O)O)C(=O)N[C@@H](C)C(=O)N[C@@H](Cc1ccc(O)cc1)C(=O)N[C@@H](Cc1ccc(O)cc1)C(=O)N[C@@H](CO)C(=O)N[C@@H](CCC(=O)O)C(=O)N[C@@H](CO)C(=O)N[C@@H](CCC(=O)O)C(=O)N[C@@H](CC(=O)O)C(=O)N[C@@H](CCC(=O)O)C(=O)N[C@@H](C)C(=O)N[C@@H](C)C(=O)N[C@@H](CC(N)=O)C(=O)N[C@@H](CC(=O)O)C(=O)N[C@@H](Cc1ccccc1)C(=O)O)C(C)C` [US09-2], the Solubility entry is listed as “water”.

As for “AAGKRGDSGLLRVCAALSIPKPSEAVRPSRIPRAP [US11-2]”, the Solubility result is listed as “water”.

Turning to “AGLPSPVPYAPLGSPDPSSPRQRTYVLPRVGIHNA [US10-1]”, the Solubility entry is reported as “water”.

Consider “ARLRLEARLGHLVAAILEREQSLVAHALGYQLAFV [UL22-4]”, for which the Solubility result is “water”.

On to “ASSQSKPLATQPPVLALSNAPPRRVSPTRGRRRHT [UL01-3]”, for which the Solubility entry was “water”.

Turning to “ATYLLNYAGRIVSSVFLQYPYTKITRLLCELSVQR [UL53-1]”, the Solubility result is recorded as “DMSO”.

Regarding “DEAFPIEYVLRLMNDWADVPCNPYLRVQNTGVSVL [UL34-1]”, the Solubility result was “DMSO”.

“DEVAPDHEAELYARVQRPGPVPDAEPIYDTVEGYA [UL10-5]”: the Solubility result is reported as “water”.

For the molecule “DRPPESPGSELYPLNAQALAHLQMLPADHRAFFRT [US10-2]”, the Solubility result is given as “water”.

On to “DRPSAYGTWVRVRVFRPPSLTIHPHAVLEGQPFKA [UL44-4]”, for which the Solubility result was “water”.

As to “GPGASPRLYSVVGPLGRQRLIIEELTLETQGMYYW [UL44-1]”, the Solubility entry is “water”.

As for “ILSPGALAAIENYVRFSADRLLGLIHMQPLYSAPA [UL40-2]”, the Solubility entry is recorded as “water”.

Regarding “IVGILGCAAVGAAPTGPASDTTNATARLPTHPPLI [US05-2]”, the Solubility entry was “water”.

In the case of “LEVIFPTTDAKLNYLSRTQRLASLLTYAGPIKAPD [UL33-1]”, the Solubility result is “water”.

On to “LSGIAVRLCYIAVVAGVVLVALRYEQEIQRRLFDL [UL53-2]”, for which the Solubility entry is reported as “DMSO”.

For “PATLIPRAAAKHLAALTRVQAERSSGYWWVNGDGI [UL45-1]”, the Solubility result is given as “water”.

Take “PQPPLPQPPLPQPPLPQPPLPPVTRTLTPQSRDSV [UL36-3]”: the Solubility result is given as “water”.

Consider “RAYLVNPFLFAAGFLEDLSHSVFPADTQETTTRRA [UL01-1]”, for which the Solubility result is “water”.

Take “RTLAVRGDASLCQLLFGHPVDAVILRQATRRPRIT [UL16-2]”: the Solubility entry is on record as “water”.

Turning to “SRLPPHTQPVFSKRVVMFAWSFLVLKPLELVAAGM [UL20-1]”, the Solubility entry is listed as “water”.

Regarding “SSDVPSVALLLFPNGTVIHLLAFDTLPIATIAPGF [UL22-3]”, the Solubility result is reported as “DMSO”.

As for “TQDTACVHGELLARKRERFAAVINRFLDLHQILRG [UL33-2]”, the Solubility entry is “water”.

As to “VAPACIIAAVLAYYVTWLARALLLYVNIKRDRLPL [UL20-2]”, the Solubility entry is listed as “DMSO”.

For the molecule “VHSRVYNIIQLVLFHNNDQARRAYVARTINHPAIR [UL40-3]”, the Solubility entry is listed as “water”.

With “VNSAETNTHGLAYDVPEGIRRHLRNPKIRRAFTEQ [UL13-2]”, the Solubility result is “water”.

On to “VSIIALTELYFILRRGSAPKNAEPAAPRGRSKGWS [UL53-3]”, for which the Solubility result was “water”.

In the case of “VSPAHPQTPVGAGSRDLSLKGTPSDGMQPRGADTL [US11-1]”, the Solubility result is “water”.

Take “VTTAEFPRDPGQLLYIPKTYLLGRPRNASLPELPE [UL22-1]”: the Solubility result is on record as “water”.

The record behind these values is patent US8541002B2, “Vaccine for treatment and prevention of herpes simplex virus infection” (Agenus Inc., priority 2003, dated 2013).
